This note sets out measurements from patent US20060121607A1, “Compositions and methods for neural differentiation of embryonic stem cells” (priority 2002, published 2006).

For one assay, the system named is SSEA4 selected HESCs. The following applies: 50 μM Proline, around 3 weeks suspension. The source says: Essentially serum free embryoid bodies were generated from bulk passaged monolayer HESC colonies as described in Example 5, in the presence of the media set out below.
The next assay has as its system human ES cells. Nature of the assay: Comparison of basic media for TH+ cell formation in human embryoid bodies. The class given is cell-based. The note with it: DMEM and 100 μM L-proline, absence of FGF2. The method, then:
Embryoid bodies/neurospheres from human ES cells were grown without the use of MEDII conditioned media Media and supplements used were Hams DMEM/F12 (Gibco Cat # 11320-033), ITSS (Gibco Cat#17502-048) and N2 (Gibco Cat#41400-045).
The ability of basic media with supplements (DMEM+N2 or ITSS) to promote neural differentiation of hES cells was compared with medium that included F12: (DMEM:F12 (1:1)+N2 or ITSS).
Trypsinised Human ES cells were seeded at approximately 10 to 20 cells/μl of media into 10 ml of neurosphere media (DMEM:F12, 10 μg/ml heparin (SIGMA), 1/50 B27 (GIBCO), 1/100 pen/strep, 1/100 ITSS) in a T75 culture flask. 10 ng/ml FGF2 was optionally added but the culture medium was preferably mitogen-free (no FGF2). Cultures were maintained in the media for 9 days after which the embryoid bodies were optionally transferred to poly-L-ornithine/laminin plates and cultured in the same media for a further 6 days. The embryoid bodies so formed (EB^15), whether from adherent or suspension culture, were then triturated to near single cell form and used for either transplantation or for the formation of neurospheres/cell reaggregates.
Example 15 was repeated utilising human ES cells and a minimal media consisting of DMEM and 100 μM L-proline. The results were similar to those described in Example 5. […]

In assay [1] the test system is sfEBM single cell suspension. Nature of the assay: Clonal derivation of colonies from dispersed sfEBM in suspension. It counts as cell-based, human. The note with it: medium containing the factor alone. As for the experimental part:
sfEBMs were transferred to tissue culture dishes (4-well or 35 mm) and were rinsed with Ca^2+/Mg^2+ free PBS. After settling, the PBS was aspirated and 1 or 2 ml of 0.25% trypsin was added. sfEBMs were dispersed to a single cell suspension, with occasional doublets or triplets, by gentle trituration using a 1 ml pipette. The cell suspension was transferred to a 15 ml tube, diluted with 9 or 18 ml of medium and pelleted by centrifugation. The pellet was resuspended in DMEM/F12 supplemented with 1×N2 supplement, FGF-2 (4 ng/ml), 50% MEDII and added to agarose coated suspension dishes at low density (0.5-5 cells/μl). These cultures were not disturbed for 4-5 days, when small uniform colonies could be observed. Colonies could be harvested at approximately 10 days.
In an attempt to derive clones of essentially serum free embryoid bodies, trypsin was used to generate single cell suspensions from sfEBM cultures and low density cell suspensions, from 0-0.5-5 cells/μl, were incubated in suspension dishes. […] The synergistic activities of FGF2 and MEDII in the derivation of clonal sfEBMs was unexpected. […] The colonies produced were presumed to be clonal, and proliferated to as much as 0.2 mm in diameter within 10 days. The cloning efficiency was in the order of 4.5-6%.

Regarding `O=C(O)[C@@H]1CCCN1` [L-proline], the “appearance of sfEBPs with low cell death and distinct neural rosette structures” value with SSEA4 selected HESCs is reported as “noticeably enhanced”. In the assay with human ES cells, the “TH+ cells in EB^17 bodies” value is given as around 50%.

Regarding FGF-2: fibroblast growth factor FGF-2, in assay [1], the “generation of clonal colonies” value was “No clonal colonies”.
